Test systems include SNB-78 CNS; DLD-1 colon; DMS 273 small cell lung; M19-MEL melanoma; LXFL 529 NSCLC; DU-145 prostate; BT-549 breast; PC-3 prostate.
What all share (test): NCI-60 cell line screen, 48 h

Where “and” joins values, the source holds several entries; their conditions need not be identical. Equal values may be shown once.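 Where inhibition never reached the appropriate level, the endpoint shown equals the highest concentration tested. Otherwise, values were interpolated linearly from a five-concentration, 48-hour dose response in 96-well plates. The concentration for 50% growth inhibition is given as GI50. TGI denotes the concentration required for complete inhibition of growth.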

For the compound `COC(=O)C1CC(C(=O)OC)c2nc3cc(C)ccc3nc21` (stereo not drawn), the TGI in the assay with SNB-78 CNS, in the assay with DLD-1 colon, in the assay with DMS 273 small cell lung, with M19-MEL melanoma and with LXFL 529 NSCLC was greater than 100 µM each time.

Take `COC(=O)C(CCS(=O)(=O)CC(=O)C(=O)Nc1cccc(C(C)=O)c1)C(=O)OC`: the TGI in the assay with SNB-78 CNS, in the assay with DLD-1 colon, in the assay on DMS 273 small cell lung, with M19-MEL melanoma and with LXFL 529 NSCLC was greater than 100 µM each time.

Consider `[Cl][Bi]([O]c1ccccn1)[O]c1ccccn1`, for which the GI50 in the assay on DLD-1 colon and in the assay with DMS 273 small cell lung was greater than 100 µM in each case. Besides, the TGI with DLD-1 colon and with DMS 273 small cell lung was greater than 100 µM each time.

With `CC(=O)OC1C(=O)C(O)C(C)OC1O[C@@H]1C[C@@]2(C)[C@@H]3CC=C4[C@@H](C[C@H](O)C(=O)C4(C)C)[C@]3(C)C(=O)C[C@]2(C)[C@H]1[C@@](C)(O)C(=O)/C=C/C(C)(C)O` (stereo partly drawn), the GI50 in the assay with SNB-78 CNS was 0.0626 µM; in the assay on DMS 273 small cell lung, 0.0452 µM. Moreover, the TGI in the assay with DLD-1 colon, with M19-MEL melanoma and in the assay with LXFL 529 NSCLC was greater than 10 µM throughout.

Regarding `C=C1[C@@H](C)[C@H]2[C@H](Cc3ccccc3)NC(=O)[C@]23OC(=O)/C=C/[C@H](O)CCC[C@@H](C)C/C=C/[C@H]3[C@@H]1O`, the TGI was 15.2 µM in the assay on SNB-78 CNS; greater than 100 µM with DU-145 prostate; greater than 100 µM in the assay on DLD-1 colon; greater than 64.3 µM with BT-549 breast; greater than 100 µM with PC-3 prostate; greater than 97 µM with DMS 273 small cell lung. Further, the TGI in the assay with M19-MEL melanoma is greater than 100 µM.

`Clc1ccc(Cl)c2[s+]snc12`: the TGI in the assay with SNB-78 CNS is greater than 100 µM; in the assay with DLD-1 colon it was greater than 100 µM; in the assay with DMS 273 small cell lung, greater than 62.7 µM; in the assay with M19-MEL melanoma it was greater than 100 µM; with LXFL 529 NSCLC, greater than 100 µM.

Consider `CCCN(CCCCC(NC(C)=O)C(=O)NCc1ccccc1)C(=O)NCCCl` (stereo not drawn), for which the TGI in the assay on DLD-1 colon, in the assay on DMS 273 small cell lung, with M19-MEL melanoma and with LXFL 529 NSCLC was greater than 100 µM throughout.

For the compound `CSc1nc(NC2OCC(OC(C)=O)C(OC(C)=O)C2OC(C)=O)c2c(OC(C)=O)c(C)c(=O)oc2n1` (stereo not drawn), the TGI with SNB-78 CNS, in the assay with DLD-1 colon, in the assay with M19-MEL melanoma and in the assay with LXFL 529 NSCLC was greater than 100 µM each time.

Regarding `CC(=O)Nc1ccc(C(=O)N2N=C(C)/C(=C/c3ccccc3O)C2=O)cc1`, the TGI in the assay on SNB-78 CNS, in the assay on DLD-1 colon, in the assay with DMS 273 small cell lung and with M19-MEL melanoma was greater than 100 µM throughout.

In the assay on LXFL 529 NSCLC, `Cc1c(/C=N/NS(=O)(=O)c2ccccc2)no[n+]1[O-]` gave a TGI greater than 100 µM.

Regarding `Cc1cccc(-c2nc3c(C(=O)NCCN(C)C)cccc3[nH]2)c1`, the TGI with SNB-78 CNS was found to be 14.6 µM; in the assay on DLD-1 colon it was 7.95 µM; in the assay on DMS 273 small cell lung it was 1.59 µM; with M19-MEL melanoma it was 3.03 µM.

For the compound `O=C1c2cccc3cc([N+](=O)[O-])cc(c23)C(=O)N1CCNCCNCCNCCN1C(=O)c2cccc3cc([N+](=O)[O-])cc(c23)C1=O`, in the assay with SNB-78 CNS, the GI50 is 0.0474 µM. The TGI in the assay on SNB-78 CNS is 0.399 µM and 0.686 µM; in the assay on DLD-1 colon it was 0.272 µM; in the assay on DMS 273 small cell lung it was 0.177 µM and 0.23 µM; with LXFL 529 NSCLC it was 0.496 µM.

`CC(C)N(C(=O)C12C3C4C5(C#N)C3C1(I)C5C42I)C(C)C` (stereo not drawn): the TGI in the assay on SNB-78 CNS, in the assay on DLD-1 colon, in the assay on DMS 273 small cell lung, in the assay with M19-MEL melanoma and in the assay with LXFL 529 NSCLC was greater than 100 µM in each case.

In the case of `O=S(=O)([O-])c1cccc2cccc(N=Cc3ccccc3[O-])c12.O=S(=O)([O-])c1cccc2cccc(N=Cc3ccccc3[O-])c12.[O]=[U]=[O]`, the GI50 was greater than 100 µM in the assay with SNB-78 CNS; greater than 100 µM in the assay on DLD-1 colon; 42.7 µM in the assay with DMS 273 small cell lung; greater than 100 µM with M19-MEL melanoma; 54.5 µM with LXFL 529 NSCLC. Further, the TGI with SNB-78 CNS, with DLD-1 colon, with DMS 273 small cell lung, in the assay with M19-MEL melanoma and in the assay on LXFL 529 NSCLC was greater than 100 µM each time.

For the compound `N#CC(C(=O)/C(=N/N)C(C#N)c1ccc(Cl)cc1)c1ccc(Cl)cc1` (stereo not drawn), the TGI in the assay with SNB-78 CNS, with DLD-1 colon, in the assay with M19-MEL melanoma and with LXFL 529 NSCLC was greater than 100 µM in each case.

As for `O=C1C(Cl)=C(Cl)C(=O)N1C1C2CC3CC(C2)CC1C3` (stereo not drawn), the TGI with SNB-78 CNS, in the assay on DLD-1 colon, in the assay on DMS 273 small cell lung, in the assay with M19-MEL melanoma and in the assay on LXFL 529 NSCLC was greater than 100 µM each time.

As to `C/C(O)=C(\N=O)C(=O)NCCc1ccccc1`, the TGI with SNB-78 CNS is greater than 100 µM; in the assay with DLD-1 colon, greater than 100 µM; with DMS 273 small cell lung, greater than 93.4 µM; in the assay with M19-MEL melanoma it was greater than 100 µM; with LXFL 529 NSCLC it was greater than 100 µM.

In the case of `CCOc1ccc(N=Cc2cccc3cccnc23)cc1`, the TGI with SNB-78 CNS, in the assay with DLD-1 colon, in the assay with DMS 273 small cell lung, in the assay on M19-MEL melanoma and in the assay on LXFL 529 NSCLC was greater than 100 µM throughout.

Turning to `CC(CN(CP(=O)([O-])[O-])CP(=O)([O-])[O-])N(CP(=O)([O-])[O-])CP(=O)([O-])[O-].N.N.[Pt+2]` (stereo not drawn), the GI50 in the assay with SNB-78 CNS, in the assay with DLD-1 colon, with DMS 273 small cell lung and with LXFL 529 NSCLC was greater than 100 µM in each case. Moreover, the TGI with SNB-78 CNS, in the assay on DLD-1 colon, in the assay on DMS 273 small cell lung and with LXFL 529 NSCLC was greater than 100 µM throughout.

As to `CC1OC(n2ncc(=O)[nH]c2=O)C=CC1=O` (stereo not drawn), the TGI with SNB-78 CNS is 86.8 µM and > 100 µM; in the assay on DLD-1 colon, greater than 100 µM; in the assay with M19-MEL melanoma, greater than 100 µM; with LXFL 529 NSCLC, greater than 100 µM. In addition, the GI50 in the assay on DLD-1 colon was 77.2 µM and 31.2 µM.

Take `COc1ccc(C=C2C(=O)OC(C)(C)OC2=O)cc1OC`: the TGI with SNB-78 CNS, in the assay with DLD-1 colon, in the assay on M19-MEL melanoma and in the assay on LXFL 529 NSCLC was greater than 100 µM each time.

On to `O=C1NC(=S)NC(=O)C1=Cc1cc2c(cc1[N+](=O)[O-])OCO2`, for which the TGI with SNB-78 CNS, in the assay with DLD-1 colon, in the assay on DMS 273 small cell lung and with M19-MEL melanoma was greater than 100 µM each time.
